Where two headings read alike, the source gives them in different places.
What was measured:
CAKI-1 = experiment: MTT cell viability, CAKI-1; type: cell-based; settings: Homo sapiens, CAKI-1, 48 h
Method: (§1) Cells (10^4) were seeded into 96-well plates and then treated with NUC-7738 (lot 5132/E00393/119) or 3′-dA (cordycepin, catalog no. C3394, lot 067M4182, Sigma) for 48 hours. One and a half milligrams per milliliter MTT (catalog no. M6494, Invitrogen) in a 1:1 ratio was added to cell culture media. After a 2-hour incubation at 37°C, media was removed and 70 μl of isopropanol was added. Optical densities at 570 nm were measured using POLARstar Omega plate reader. Readouts were normalized and IC50 values were calculated using a nonlinear regression model in Graphpad prism (v8.3.0). Each biological replicate (at least 3) was performed in 4 technical replicates to calculate the average IC50 value. To measure apoptosis, the Guava NexinReagent (Luminex Corp.) was used following manufacturer's instructions. Fluorescence staining was measured with an automated 96-well Guava easyCyte Flow Cytometer (Luminex Corp.).

renal cancer cell lines = experiment: siRNA HINT1 knockdown in renal cancer cell lines; type: cell-based
Method: Cells were transfected with stealth siRNA (catalog no. HSS104782, catalog no. HSS104784, catalog no. HSS179235; ThermoFisher) targeting HINT-1 using Lipofectamine RNAiMAX (Invitrogen) following the manufacturer's protocol. At 48 hours posttransfection, cells were treated and cell viability was measured 96 hours posttransfection as described above. Samples for Western blot analysis were harvested 48 hours posttransfection. For gene-depletion experiments, approximately 4 × 10^5 HAP1 cells were seeded per well in a 6-well plate and grown to approximately 50% confluency. After 24 hours, cells were transfected with lentiCRISPR v2 plasmid (GenScript) containing a guide RNA (gRNA) targeting gene of interest using Turbofectin (catalog no. TF81001, OriGene) according to manufacturer's instruction. The following sequences were used: HINT-1 CRISPR gRNA 2 ([…]) and NUDT2 CRISPR gRNA 2 ([…]). At 24 hours posttransfection, positively transfected cells were selected using […] puromycin for 72 hours. After selection, surviving colonies were expanded and used for downstream analysis. For clonal selection, clones were selected using limited dilution and expanded into a 6-well plate for Western blot screening.

SK-OV3 = experiment: MTT cell viability, SK-OV3; type: cell-based; settings: Homo sapiens, SK-OV-3, 48 h
Method: as §1

ACHN = experiment: MTT cell viability, ACHN; type: cell-based; settings: Homo sapiens, 48 h
Method: as §1

501MEL = experiment: MTT cell viability, 501MEL; type: cell-based; settings: 48 h
Method: as §1

786-O = experiment: IC50 in renal cancer cell line 786-O; type: cell-based; settings: Homo sapiens, 786-0
NCI-786 = experiment: MTT cell viability, NCI-786; type: cell-based; settings: 48 h
Method: as §1

[1] = Beagle dog 4-week toxicology and toxicokinetics
[2] = system: human ccRCC tissue slices; experiment: Ex vivo tissue slice culture of clear cell renal carcinoma; type: cell-based; settings: 0, 5 and 25 μmol/L, 24 hours
Source text: A fresh sample of clear cell renal carcinoma (ccRCC) was placed in formalin to serve as a formalin control for our experiment. The sample was transported in precooled 199 medium (catalog no. 2154) supplemented with penicillin/streptomycin (1%), Normocin (0.2%), and Glutamax (2 mmol/L). The tissue sample was embedded in low-melting point agarose gel and sliced into 250-μm sections using a Vibratome VT1000S (Leica Biosystems). Tissue slices were put immediately into media (199 medium supplemented with 10% FBS, 2 mmol/L Glutamax, and 1% penicillin/streptomycin) containing different concentrations of NUC-7738 (0, 5, and 25 μmol/L) and incubated for 24 hours at 37°C. Treated tissue sections were then fixed using PFA for 1 hour at room temperature and stored in PBS at 4°C. The treated slices were later embedded in paraffin and subsequently sliced into 3-μm sections using a microtome. The sections were placed on slides and baked overnight at 40°C. Sections were dewaxed using xylene and rehydrated in a graded alcohol series followed by tap water. […]
Immunofluorescence staining was performed using BOND RX. NF-κB p65 (catalog no. 4764, CST) and cleaved caspase-3 (catalog no. 9661, CST) were detected with HRP-conjugated secondary antibody and visualized using tyramide-fluorophore conjugates (TSA Cy5 for both). […]

HAP1 cells = experiment: MTT cell viability, HAP1 cells; type: cell-based; settings: Homo sapiens
Method: as §1

A498 = experiment: MTT cell viability, A498; type: cell-based; settings: Homo sapiens, A498, 48 h
Method: as §1

## C[C@H](NP(=O)(OC[C@@H]1C[C@@H](O)[C@H](n2cnc3c(N)ncnc32)O1)Oc1ccccc1)C(=O)OCc1ccccc1 (stereo partly drawn) [NUC-7738, 3′-deoxyadenosine-5′-O-phenyl-(benzyloxy-L-alaninyl)-phosphate]
CAKI-1
  IC50: 33 µM
Renal cancer cell lines
  sensitivity after HINT1 depletion to minimal residual levels: no difference in sensitivity
SK-OV3
  IC50: 16.6 µM
ACHN
  IC50: 54.7 µM
501MEL
  IC50: 10.9 µM
786-O
  IC50: 13 µM
NCI-786
  IC50: 49.5 µM
[1]; 10 mg/kg/day, sex mean at day 26
  mean AUC(0-t): 638 ng/h/mL
[1]; 20 mg/kg/day, iv slow injection, 4 cycles
  toxicology findings: induced changes in the liver and bone marrow
[1]; all doses, significance >2-fold change
  systemic exposure (mean Cmax and AUC 0-t), single vs repeated administrations: No significant differences
[1]; both, beagle, plasma, iv
  Tmax: 15 min
  clearance: 245 to 533 mL/min/kg
  half-life: 13.2 to 27.6 min
[1]; both, beagle, plasma, iv, 10 mg/kg/day
  Cmax: 1560 ng/mL
[1]; iv, 4 cycles (4 weeks)
  highest nonseverely toxic dose (HNSTD): 10 mg/kg/day
[2]
  nuclear p65 and tumor-cell apoptosis: dose-dependent decrease in nuclear p65 and an increase in tumor-cell apoptosis
HAP1 cells; HAP1, 48 h
  IC50: 7.32 µM
  IC90: 54.2 µM
HAP1 cells; HAP1, read-out: IC50 concentration used for RNA-seq
  IC50: 7.6 µM
HAP1 cells; HAP1, read-out: IC90 concentration used for RNA-seq
  IC90: 125 µM
A498
  IC50: 48.5 µM
